In ChEMBL document CHEMBL1201862, “PubChem BioAssay data set” (2004):
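In this assay, cells in 96-well plates receive the compound at five concentrations for 48 hours. Endpoints are linearly interpolated between the surrounding concentrations. GI50 = concentration required for 50% inhibition of growth.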 Calls of active or inactive are those of the source. No stated cut-off is given here; in the data, active = GI50 up to about 1.1 µM and inactive = higher.

How the values were obtained:
Assay in all cases: DTP human tumour cell line panel, 48 h
[1] = tested on: DU-145
[2] = tested on: K562
[3] = tested on: T47D
[4] = tested on: NCI-H460
[5] = tested on: SF-268
[6] = tested on: Malme-3M
[7] = tested on: COLO 205
[8] = tested on: RPMI-8226
[9] = tested on: Hs-578T
[10] = tested on: UACC-62
[11] = tested on: A549
[12] = tested on: A498
[13] = tested on: OVCAR-8
[14] = tested on: MDA-MB-231
[15] = tested on: HT-29
[16] = tested on: U-251
[17] = tested on: HCT-116
[18] = tested on: ACHN
[19] = tested on: HOP-62
[20] = tested on: MOLT-4

Compound	GI50 [1]	GI50 [2]	GI50 [3]	GI50 [4]	GI50 [5]	GI50 [6]	GI50 [7]	GI50 [8]	GI50 [9]	GI50 [10]	GI50 [11]	GI50 [12]	GI50 [13]	GI50 [14]	GI50 [15]	GI50 [16]	GI50 [17]	GI50 [18]	GI50 [19]	GI50 [20]
NCCSCCc1ccccc1	> 100 µM (inactive)	> 100 µM (inactive)	55.1 µM (inactive)	> 100 µM (inactive)	> 100 µM (inactive)	> 100 µM (inactive)	> 100 µM (inactive)	44 µM (inactive)	> 100 µM (inactive)	> 100 µM (inactive)	> 100 µM (inactive)	> 100 µM (inactive)	> 100 µM (inactive)	> 100 µM (inactive)	> 100 µM (inactive)	> 100 µM (inactive)	> 100 µM (inactive)	> 100 µM (inactive)	> 100 µM (inactive)	
COC(=O)c1cc2c(n1S(=O)(=O)c1ccc(C)cc1)C(=O)C(=O)c1[nH]cc(C(=O)OCc3ccccc3)c1-2	0.138 µM (active)	0.0439 µM (active)	0.216 µM (active)	1.37 µM (inactive)	0.221 µM (active)	0.0321 µM (active)	0.191 µM (active)	0.0883 µM (active)	0.43 µM (active)	0.0555 µM (active)	0.183 µM (active)	1.65 µM (inactive)	0.0989 µM (active)	0.0274 µM (active)	0.273 µM (active)	0.172 µM (active)	0.0718 µM (active)	0.233 µM (active)	0.149 µM (active)	0.0647 µM (active)
CN(C)CCCNc1ncnc2[nH]cnc12	> 100 µM (inactive)	> 100 µM (inactive)	> 100 µM (inactive)	> 100 µM (inactive)	> 100 µM (inactive)	> 100 µM (inactive)	> 100 µM (inactive)	> 100 µM (inactive)	> 100 µM (inactive)	> 100 µM (inactive)	> 100 µM (inactive)	> 100 µM (inactive)	> 100 µM (inactive)	> 100 µM (inactive)	> 100 µM (inactive)	> 100 µM (inactive)	> 100 µM (inactive)	> 100 µM (inactive)	> 100 µM (inactive)	> 100 µM (inactive)
CCCCCCNCCCNc1c2ccccc2nc2cccc([N+](=O)[O-])c12	0.00537 µM (active)	0.00376 µM (active)	0.0369 µM (active)	0.00269 µM (active)	0.0163 µM (active)	0.0206 µM (active)	0.00347 µM (active)	0.00247 µM (active)	0.0448 µM (active)	0.0279 µM (active)	0.00409 µM (active)	0.164 µM (active)	0.012 µM (active)	0.0229 µM (active)	0.00528 µM (active)	0.0118 µM (active)	0.0352 µM (active)	0.0132 µM (active)	0.0245 µM (active)	0.00658 µM (active)
NNc1nnc(-c2nnc(NN)o2)o1	> 10 µM (inactive)	> 10 µM (inactive)	> 10 µM (inactive)	> 10 µM (inactive)	> 10 µM (inactive)	> 10 µM (inactive)	> 10 µM (inactive)	> 10 µM (inactive)	> 10 µM (inactive)	> 10 µM (inactive)	> 10 µM (inactive)	> 10 µM (inactive)	> 10 µM (inactive)	> 10 µM (inactive)	> 10 µM (inactive)	> 10 µM (inactive)	> 10 µM (inactive)	> 10 µM (inactive)	> 10 µM (inactive)	> 10 µM (inactive)
COc1cc2cc(C(=O)N3CC(CCl)c4ccc([N+](C)(C)Cc5ccccc5[N+](=O)[O-])cc43)[nH]c2c(OC)c1OC (configuration not stated)	1.53 µM (inactive)	1.71 µM (inactive)	2.31 µM (inactive)		1.71 µM (inactive)	1.73 µM (inactive)	2 µM (inactive)	1.3 µM (inactive)	2.4 µM (inactive)	1.01 µM (active)	0.314 µM (active)	0.398 µM (active)	3.44 µM (inactive)	3.94 µM (inactive)	0.962 µM (active)	2.18 µM (inactive)	1.66 µM (inactive)	0.348 µM (active)	2.94 µM (inactive)	0.63 µM (active)
CC1CCCN(CC(O)CN2CCCc3ccccc32)C1 (configuration not stated)	> 100 µM (inactive)	> 100 µM (inactive)	> 100 µM (inactive)		> 100 µM (inactive)	> 100 µM (inactive)	> 100 µM (inactive)	> 100 µM (inactive)	56.2 µM (inactive)	> 100 µM (inactive)	> 100 µM (inactive)	> 100 µM (inactive)	> 100 µM (inactive)	> 100 µM (inactive)	41.6 µM (inactive)	> 100 µM (inactive)	> 100 µM (inactive)	> 100 µM (inactive)	> 100 µM (inactive)	> 100 µM (inactive)
O/N=C(\CC(O)(C(F)(F)F)C(F)(F)F)c1cccs1	> 10 µM (inactive)	> 10 µM (inactive)	> 10 µM (inactive)	> 10 µM (inactive)	> 10 µM (inactive)	> 10 µM (inactive)	> 10 µM (inactive)	> 10 µM (inactive)	> 10 µM (inactive)	> 10 µM (inactive)	> 10 µM (inactive)	> 10 µM (inactive)	> 10 µM (inactive)	> 10 µM (inactive)	> 10 µM (inactive)	> 10 µM (inactive)	> 10 µM (inactive)	> 10 µM (inactive)	> 10 µM (inactive)	> 10 µM (inactive)
Cn1c(SCc2ccc(F)cc2)nnc1C12CC3CC(CC(C3)C1)C2	52 µM (inactive)	24.2 µM (inactive)	56.9 µM (inactive)	40 µM (inactive)	40.4 µM (inactive)	19.5 µM (inactive)	17 µM (inactive)	20.1 µM (inactive)	34.8 µM (inactive)	27.1 µM (inactive)	36.6 µM (inactive)	11 µM (inactive)	31.8 µM (inactive)	20.1 µM (inactive)	16.1 µM (inactive)	35.2 µM (inactive)	23.3 µM (inactive)	33.5 µM (inactive)	47.3 µM (inactive)	13.6 µM (inactive)
CCOC(=O)c1c(N2CCCC2)[nH]c(=O)c(C(c2ccc(N(C)C)cc2)c2c(O)c(C(=O)OCC)c(N3CCCC3)[nH]c2=O)c1O	> 100 µM (inactive)	> 100 µM (inactive)	> 100 µM (inactive)	> 100 µM (inactive)	> 100 µM (inactive)	> 100 µM (inactive)	> 100 µM (inactive)	> 100 µM (inactive)	> 100 µM (inactive)	> 100 µM (inactive)	> 100 µM (inactive)	> 100 µM (inactive)	> 100 µM (inactive)	82.2 µM (inactive)	> 100 µM (inactive)	> 100 µM (inactive)	> 100 µM (inactive)	> 100 µM (inactive)	> 100 µM (inactive)	> 100 µM (inactive)
COc1ccc(/N=N/c2ccc3oc(=O)c(C(=O)Nc4ccc(OC)cc4)cc3c2)cc1	15.6 µM (inactive)	18.1 µM (inactive)	4.23 µM (inactive)	20.4 µM (inactive)	9.02 µM (inactive)	18.6 µM (inactive)	20.8 µM (inactive)	16.3 µM (inactive)	20.9 µM (inactive)		31.4 µM (inactive)	2.77 µM (inactive)	14.3 µM (inactive)	23.5 µM (inactive)	22.6 µM (inactive)	13.4 µM (inactive)	11.2 µM (inactive)	18.2 µM (inactive)	13.9 µM (inactive)	6.15 µM (inactive)
CCOC(=O)CCCN	> 100 µM (inactive)	> 100 µM (inactive)	> 100 µM (inactive)	> 100 µM (inactive)	> 100 µM (inactive)	> 100 µM (inactive)	> 100 µM (inactive)	> 100 µM (inactive)	> 100 µM (inactive)		> 100 µM (inactive)	> 100 µM (inactive)	> 100 µM (inactive)	> 100 µM (inactive)	> 100 µM (inactive)	> 100 µM (inactive)	> 100 µM (inactive)	> 100 µM (inactive)	> 100 µM (inactive)	> 100 µM (inactive)
[O-][n+]1ccc(NO)c2ccccc21	1.5 µM (inactive)	2 µM (inactive)	1.67 µM (inactive)	0.295 µM (active)	0.565 µM (active)	6.5 µM (inactive)	1.41 µM (inactive)	0.297 µM (active)	2.09 µM (inactive)	1.22 µM (inactive)	1.6 µM (inactive)	0.673 µM (active)	0.561 µM (active)	1.32 µM (inactive)	1.19 µM (inactive)	0.658 µM (active)	2.03 µM (inactive)	0.796 µM (active)	1.79 µM (inactive)	0.6 µM (active)
Cc1ccc2c(O)cc(-c3ccc4ccccc4c3)nc2n1	15.5 µM (inactive)	3.41 µM (inactive)	7 µM (inactive)		6.9 µM (inactive)	4.46 µM (inactive)	2.11 µM (inactive)	4.48 µM (inactive)	3.1 µM (inactive)	3.64 µM (inactive)	7.89 µM (inactive)	3.4 µM (inactive)	5.82 µM (inactive)	14.3 µM (inactive)	3.75 µM (inactive)			4.72 µM (inactive)	7.13 µM (inactive)	4.45 µM (inactive)
